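Where inhibition never reached the appropriate level, the endpoint shown equals the highest concentration tested. Otherwise, values were interpolated linearly from a five-concentration, 48-hour dose response in 96-well plates. GI50 is the concentration that inhibits growth by half.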 Activity calls are given as the source filed them. No stated cut-off is given here; in the data, active = GI50 up to about 1.1 µM and inactive = higher.
What was measured:
Assay in all cases: growth of human tumour cells (NCI), 48 h
SN12C = test system: SN12C
OVCAR-3 = test system: OVCAR-3
Malme-3M = test system: Malme-3M
MCF7 = test system: MCF7
RPMI-8226 = test system: RPMI-8226
SK-MEL-2 = test system: SK-MEL-2
OVCAR-4 = test system: OVCAR-4
IGROV-1 = test system: IGROV-1
LOX IMVI = test system: LOX IMVI
BT-549 = test system: BT-549
SNB-75 = test system: SNB-75
M14 = test system: M14
CAKI-1 = test system: CAKI-1
Hs-578T = test system: Hs-578T
K562 = test system: K562
EKVX = test system: EKVX
SW-620 = test system: SW-620
MDA-N = test system: MDA-N
U-251 = test system: U-251
SF-539 = test system: SF-539

Structure (SMILES) | GI50 (SN12C) | GI50 (OVCAR-3) | GI50 (Malme-3M) | GI50 (MCF7) | GI50 (RPMI-8226) | GI50 (SK-MEL-2) | GI50 (OVCAR-4) | GI50 (IGROV-1) | GI50 (LOX IMVI) | GI50 (BT-549) | GI50 (SNB-75) | GI50 (M14) | GI50 (CAKI-1) | GI50 (Hs-578T) | GI50 (K562) | GI50 (EKVX) | GI50 (SW-620) | GI50 (MDA-N) | GI50 (U-251) | GI50 (SF-539)
CCc1ccc2c(c1)/C(=C1/Nc3ccccc3C1=O)C(=O)N2 | 68.2 µM (inactive) | 20.6 µM (inactive) | 35.4 µM (inactive) | 1.78 µM (inactive) | > 100 µM (inactive) | 17.1 µM (inactive) | 7.82 µM (inactive) | 0.124 µM (active) | 50.7 µM (inactive) | 25.1 µM (inactive) | 22.3 µM (inactive) | 26.7 µM (inactive) | 17.2 µM (inactive) | 11 µM (inactive) | 22.3 µM (inactive) | 5.36 µM (inactive) | 63.2 µM (inactive) | 34.5 µM (inactive) | 13.5 µM (inactive) | –
CNc1c2cccc(C)c2nc2c(C(=O)NCCN(C)C)cccc12 | 0.0282 µM (active) | 0.214 µM (active) | 0.169 µM (active) | < 0.045 µM (active) | 0.0604 µM (active) | 0.309 µM (active) | < 0.01 µM (active) | 0.0483 µM (active) | 0.112 µM (active) | 1.04 µM (active) | 0.051 µM (active) | 0.207 µM (active) | < 0.0344 µM (active) | 0.0957 µM (active) | 0.0249 µM (active) | 0.151 µM (active) | < 0.0288 µM (active) | 0.0841 µM (active) | 0.149 µM (active) | –
Nc1nc(N)c2ncn(-c3ccc(Cl)c(Cl)c3)c2n1 | 15.8 µM (inactive) | 14.5 µM (inactive) | 17.9 µM (inactive) | 40.1 µM (inactive) | 22.4 µM (inactive) | 12.4 µM (inactive) | 33.3 µM (inactive) | 16.2 µM (inactive) | – | 21.9 µM (inactive) | < 0.01 µM (active) | 42.7 µM (inactive) | 16.9 µM (inactive) | 15 µM (inactive) | – | 25.5 µM (inactive) | 42.4 µM (inactive) | 30.9 µM (inactive) | 25.9 µM (inactive) | 21 µM (inactive)
O=Cc1cc(C(=O)OCc2ccccc2)n(S(=O)(=O)c2ccccc2)c1 | 26.3 µM (inactive) | 18.7 µM (inactive) | 30.5 µM (inactive) | 11.7 µM (inactive) | – | 16.8 µM (inactive) | 43.5 µM (inactive) | 25.9 µM (inactive) | 10.3 µM (inactive) | 16 µM (inactive) | 23.1 µM (inactive) | 14.8 µM (inactive) | 29.4 µM (inactive) | 15.8 µM (inactive) | 4.51 µM (inactive) | 23.3 µM (inactive) | – | 5.31 µM (inactive) | – | 12.7 µM (inactive)
COc1cc2c3c(n(C)c(=O)c2cc1OC)-c1cc2c(cc1/C3=C\CCCCl)OCO2 | – | – | > 100 µM (inactive) | 42 µM (inactive) | – | 25.5 µM (inactive) | 49.7 µM (inactive) | 25.4 µM (inactive) | 39 µM (inactive) | 20.5 µM (inactive) | 11.9 µM (inactive) | 36.9 µM (inactive) | 25.9 µM (inactive) | 47.4 µM (inactive) | 23.2 µM (inactive) | 54.6 µM (inactive) | > 100 µM (inactive) | > 100 µM (inactive) | 25.2 µM (inactive) | –
C/C=C1/CC(C(=O)OC)N(C(=O)OCc2ccccc2)C1=S (stereo not given) | – | > 100 µM (inactive) | > 100 µM (inactive) | > 100 µM (inactive) | > 100 µM (inactive) | > 100 µM (inactive) | > 100 µM (inactive) | > 100 µM (inactive) | – | > 100 µM (inactive) | > 100 µM (inactive) | > 100 µM (inactive) | > 100 µM (inactive) | > 100 µM (inactive) | > 100 µM (inactive) | 84.3 µM (inactive) | > 100 µM (inactive) | > 100 µM (inactive) | > 100 µM (inactive) | –
COc1ccc(-c2c(C#N)c(N)nc(S)c2C#N)cc1 | 29.1 µM (inactive) | 64.7 µM (inactive) | 29.9 µM (inactive) | 39.2 µM (inactive) | 21.5 µM (inactive) | 36.1 µM (inactive) | > 100 µM (inactive) | 24.7 µM (inactive) | 43.5 µM (inactive) | 24.9 µM (inactive) | – | 30 µM (inactive) | 42.4 µM (inactive) | 19.1 µM (inactive) | 26.5 µM (inactive) | 36.1 µM (inactive) | 22.2 µM (inactive) | 11.5 µM (inactive) | 40.5 µM (inactive) | 38.9 µM (inactive)

Source: ChEMBL document CHEMBL1201862, “PubChem BioAssay data set” (2004)
